According to ChEMBL document CHEMBL1146184, “Drug self-association modulates the cellular bioavailability of DNA minor groove-directed terbenzimidazoles” (J Med Chem, 2006):

What was measured:
Type in all cases: ADME, cell-based
[1] = tested on: RPMI 8402; assay: Uptake in human RPMI8402 cells at 1 uM after 0.5 hrs; conditions: rpmi 8402, 0.5 h
[2] = tested on: RPMI 8402; assay: Uptake in human RPMI8402 cells at 1 uM after 4 hrs; conditions: rpmi 8402, 4 h
[3] = tested on: RPMI 8402; assay: Uptake in human RPMI8402 cells at 1 uM after 2 hrs; conditions: rpmi 8402, 2 h
[4] = tested on: RPMI 8402; assay: Uptake in human RPMI8402 cells at 1 uM after 1 hr; conditions: rpmi 8402, 1 h

Work on `c1ccc(-c2ccc3[nH]c(-c4ccc5[nH]c(-c6ccc7cc[nH]c7c6)nc5c4)nc3c2)cc1` yielded a Drug uptake [1] of 18% and a Drug uptake [2] of 30%.

Work on `c1ccc(-c2ccc3[nH]c(-c4ccc5[nH]c(-c6ccc7[nH]cnc7c6)nc5c4)nc3c2)cc1` yielded a Drug uptake [1] of 3%, a Drug uptake [3] of 3% and a Drug uptake [4] of 3%. For the same compound, the Drug uptake [2] was 3%.
